Experimental data taken from US20070276025A1, “Indirubin-Type Compounds, Compositions, and Methods for Their Use” (priority 2003, published 2007).
Like-named read-outs stand apart in the source and are kept apart here.

Columns and labels:
AhR [1] = target: T1, AhR (Mus musculus, UniProt P30561); conditions: read-out: EC50 AhR (hepatoma cell line); Table 4; EGFP at 24 hours
T1 sequence (P30561 1-848): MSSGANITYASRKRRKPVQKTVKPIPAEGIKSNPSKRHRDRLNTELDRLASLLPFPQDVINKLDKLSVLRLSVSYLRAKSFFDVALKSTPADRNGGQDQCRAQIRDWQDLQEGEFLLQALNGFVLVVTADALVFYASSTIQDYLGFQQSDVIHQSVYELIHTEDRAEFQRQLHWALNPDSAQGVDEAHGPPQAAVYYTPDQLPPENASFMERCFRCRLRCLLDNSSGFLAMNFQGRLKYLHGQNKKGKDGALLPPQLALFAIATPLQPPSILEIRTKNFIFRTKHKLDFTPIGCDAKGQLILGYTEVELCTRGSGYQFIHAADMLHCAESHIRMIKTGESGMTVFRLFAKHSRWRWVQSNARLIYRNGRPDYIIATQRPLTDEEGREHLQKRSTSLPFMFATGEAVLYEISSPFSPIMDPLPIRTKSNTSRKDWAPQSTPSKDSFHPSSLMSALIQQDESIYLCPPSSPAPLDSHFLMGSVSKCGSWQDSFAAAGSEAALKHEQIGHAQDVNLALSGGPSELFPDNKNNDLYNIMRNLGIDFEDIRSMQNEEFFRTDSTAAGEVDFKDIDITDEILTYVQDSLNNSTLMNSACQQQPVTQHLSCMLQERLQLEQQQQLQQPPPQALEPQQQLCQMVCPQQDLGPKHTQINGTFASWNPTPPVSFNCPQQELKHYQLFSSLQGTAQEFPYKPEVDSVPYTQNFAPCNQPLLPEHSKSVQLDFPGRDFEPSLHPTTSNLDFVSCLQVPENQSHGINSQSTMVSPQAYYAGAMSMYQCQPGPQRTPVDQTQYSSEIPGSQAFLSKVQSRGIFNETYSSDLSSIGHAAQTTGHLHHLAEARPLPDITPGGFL

[2] = Solubility (qualitative remark); conditions: relative to parent indirubins / 3′-oximes
AhR [3] = target: AhR (Homo sapiens, UniProt P35869); assay: Yeast AhR reporter assay (β-galactosidase); conditions: read-out: EC50 AhR (yeast); Table 4; * = inactive at the indicated highest concentration tested
Sequence of AhR (Homo sapiens, UniProt P35869) (P35869 11-848): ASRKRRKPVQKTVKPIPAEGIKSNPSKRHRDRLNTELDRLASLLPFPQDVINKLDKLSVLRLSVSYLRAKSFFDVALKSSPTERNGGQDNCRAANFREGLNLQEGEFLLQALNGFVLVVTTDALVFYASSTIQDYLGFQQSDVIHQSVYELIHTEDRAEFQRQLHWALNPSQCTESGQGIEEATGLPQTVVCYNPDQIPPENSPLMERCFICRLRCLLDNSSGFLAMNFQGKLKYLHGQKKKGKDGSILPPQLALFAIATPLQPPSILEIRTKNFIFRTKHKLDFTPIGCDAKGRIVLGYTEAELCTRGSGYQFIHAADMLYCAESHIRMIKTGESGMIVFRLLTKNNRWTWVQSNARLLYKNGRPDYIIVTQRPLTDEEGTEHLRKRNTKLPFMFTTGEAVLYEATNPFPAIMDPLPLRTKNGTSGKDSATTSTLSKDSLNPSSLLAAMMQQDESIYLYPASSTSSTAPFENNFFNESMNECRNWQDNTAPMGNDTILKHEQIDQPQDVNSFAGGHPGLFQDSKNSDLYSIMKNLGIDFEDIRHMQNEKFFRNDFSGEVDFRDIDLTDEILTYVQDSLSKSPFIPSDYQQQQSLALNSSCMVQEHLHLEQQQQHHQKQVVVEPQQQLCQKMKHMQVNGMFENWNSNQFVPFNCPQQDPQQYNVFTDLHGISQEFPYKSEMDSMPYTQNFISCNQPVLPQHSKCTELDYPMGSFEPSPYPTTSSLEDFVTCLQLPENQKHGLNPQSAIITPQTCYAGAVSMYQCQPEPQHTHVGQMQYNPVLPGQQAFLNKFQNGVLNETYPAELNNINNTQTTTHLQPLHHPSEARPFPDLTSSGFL
Sequence of AhR (Homo sapiens, UniProt P35869) (P27540 whole entry partner): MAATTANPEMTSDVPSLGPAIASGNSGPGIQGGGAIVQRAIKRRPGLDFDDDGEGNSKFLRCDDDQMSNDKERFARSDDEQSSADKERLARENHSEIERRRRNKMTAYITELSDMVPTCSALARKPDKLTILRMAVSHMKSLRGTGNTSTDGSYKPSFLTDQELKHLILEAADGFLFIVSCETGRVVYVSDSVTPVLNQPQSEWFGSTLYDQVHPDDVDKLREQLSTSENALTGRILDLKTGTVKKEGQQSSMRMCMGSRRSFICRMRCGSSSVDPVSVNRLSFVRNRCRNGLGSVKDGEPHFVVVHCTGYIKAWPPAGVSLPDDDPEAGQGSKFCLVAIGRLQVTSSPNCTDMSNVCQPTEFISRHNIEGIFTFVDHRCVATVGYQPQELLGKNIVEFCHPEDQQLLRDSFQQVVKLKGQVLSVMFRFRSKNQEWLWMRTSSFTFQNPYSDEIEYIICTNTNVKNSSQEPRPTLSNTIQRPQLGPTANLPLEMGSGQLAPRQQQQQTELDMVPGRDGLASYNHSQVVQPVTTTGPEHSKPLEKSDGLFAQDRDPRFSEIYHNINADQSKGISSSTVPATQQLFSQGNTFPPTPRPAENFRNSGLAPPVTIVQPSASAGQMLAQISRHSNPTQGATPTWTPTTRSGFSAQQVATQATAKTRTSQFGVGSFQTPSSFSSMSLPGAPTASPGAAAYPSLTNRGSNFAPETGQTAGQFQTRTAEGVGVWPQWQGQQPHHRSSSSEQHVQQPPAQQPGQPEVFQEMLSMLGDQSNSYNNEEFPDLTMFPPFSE

GSK-3α/β = GSK-3α/β kinase assay (GS-1 peptide, 15 μM ATP); type: biochemical, porcine
CDK1/cyclin B = CDK1/cyclin B kinase assay (histone H1, 15 μM ATP); type: biochemical, starfish (Marthasterias glacialis)
CDK5/p25 = CDK5/p25 (Homo sapiens, UniProt Q00535); assay: CDK5/p25 kinase assay (histone H1, 15 μM ATP); type: biochemical, mammalian; conditions: read-out: IC50 CDK5/p25
Sequence of CDK5/p25 (Q00535 whole entry, species assumed): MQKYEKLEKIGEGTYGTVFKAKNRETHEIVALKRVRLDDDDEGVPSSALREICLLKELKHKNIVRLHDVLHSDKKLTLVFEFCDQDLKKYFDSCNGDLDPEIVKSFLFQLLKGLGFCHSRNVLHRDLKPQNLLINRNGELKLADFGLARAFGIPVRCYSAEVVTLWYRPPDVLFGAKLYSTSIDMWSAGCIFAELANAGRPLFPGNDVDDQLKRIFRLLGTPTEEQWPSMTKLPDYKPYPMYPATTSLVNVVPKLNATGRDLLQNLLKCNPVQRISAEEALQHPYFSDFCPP
Sequence of CDK5/p25 (Q15078 99-307 partner limits assumed, species assumed): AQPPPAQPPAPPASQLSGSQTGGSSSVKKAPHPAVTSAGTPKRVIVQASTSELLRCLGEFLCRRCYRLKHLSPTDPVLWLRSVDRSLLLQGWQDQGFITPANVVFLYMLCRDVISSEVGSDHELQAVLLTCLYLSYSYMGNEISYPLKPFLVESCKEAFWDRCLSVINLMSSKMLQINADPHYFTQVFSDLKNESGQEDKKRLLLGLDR

erk1 = erk1 (Homo sapiens, UniProt P27361); assay: erk1 kinase assay; conditions: read-out: IC50 erk1; Table 2, 15 μM ATP
Sequence of erk1 (P27361 whole entry, species assumed): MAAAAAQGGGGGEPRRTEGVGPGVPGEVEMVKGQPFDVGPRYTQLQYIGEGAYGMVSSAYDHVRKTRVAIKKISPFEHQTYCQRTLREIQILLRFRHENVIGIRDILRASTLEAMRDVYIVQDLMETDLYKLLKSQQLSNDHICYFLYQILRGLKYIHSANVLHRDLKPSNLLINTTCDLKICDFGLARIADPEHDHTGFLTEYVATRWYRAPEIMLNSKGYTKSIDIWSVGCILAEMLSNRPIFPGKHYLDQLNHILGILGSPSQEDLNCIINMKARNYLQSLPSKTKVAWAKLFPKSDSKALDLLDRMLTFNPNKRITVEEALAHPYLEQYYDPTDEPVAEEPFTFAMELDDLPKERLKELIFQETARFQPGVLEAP

erk2 = erk2 (Homo sapiens, UniProt P28482); assay: erk2 kinase assay; conditions: read-out: IC50 erk2; Table 2, 15 μM ATP
Sequence of erk2 (P28482 whole entry, species assumed): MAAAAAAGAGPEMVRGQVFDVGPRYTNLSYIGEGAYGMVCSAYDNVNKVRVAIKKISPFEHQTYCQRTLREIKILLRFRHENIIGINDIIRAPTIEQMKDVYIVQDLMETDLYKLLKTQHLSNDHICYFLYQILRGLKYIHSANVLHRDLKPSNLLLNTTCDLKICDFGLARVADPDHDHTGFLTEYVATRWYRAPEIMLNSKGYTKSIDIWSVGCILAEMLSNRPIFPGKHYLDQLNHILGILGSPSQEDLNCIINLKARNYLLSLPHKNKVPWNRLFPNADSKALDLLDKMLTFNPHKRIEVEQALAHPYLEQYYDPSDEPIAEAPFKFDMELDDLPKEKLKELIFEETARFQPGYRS

MAPKK = MAPKK kinase assay; conditions: read-out: IC50 MAPKK; Table 2, 15 μM ATP
CDK5/p35 = CDK5/p35 (Homo sapiens, UniProt Q00535); assay: CDK5/p35 kinase assay; conditions: read-out: IC50 CDK5/p35; Table 2, 15 μM ATP
Sequence of CDK5/p35 (Q00535 whole entry, species assumed): as the sequence (Q00535 whole entry, species assumed) above
Sequence of CDK5/p35 (Q15078 whole entry partner, species assumed): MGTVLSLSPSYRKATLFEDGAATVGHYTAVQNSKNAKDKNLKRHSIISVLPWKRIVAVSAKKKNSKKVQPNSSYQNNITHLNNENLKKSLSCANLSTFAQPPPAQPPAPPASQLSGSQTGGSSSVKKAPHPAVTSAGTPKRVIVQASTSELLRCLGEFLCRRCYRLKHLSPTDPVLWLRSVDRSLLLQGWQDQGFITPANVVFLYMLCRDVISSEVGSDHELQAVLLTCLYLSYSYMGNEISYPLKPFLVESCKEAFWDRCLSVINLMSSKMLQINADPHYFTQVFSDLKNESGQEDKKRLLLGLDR

casein kinase 2 = casein kinase 2 assay; conditions: read-out: IC50 casein kinase 2; Table 2, 15 μM ATP
cAMP-dependent PK = cAMP-dependent PK assay; conditions: read-out: IC50 cAMP-dependent PK; Table 2, 15 μM ATP
cGMP-dependent PK = cGMP-dependent PK assay; conditions: read-out: IC50 cGMP-dependent PK; Table 2, 15 μM ATP
protein kinase C α = protein kinase C α (Homo sapiens, UniProt P17252); assay: protein kinase C α assay; conditions: read-out: IC50 protein kinase C α; Table 2, 15 μM ATP
protein kinase C γ = protein kinase C γ (Homo sapiens, UniProt P05129); assay: protein kinase C γ assay; conditions: read-out: IC50 protein kinase C γ; Table 2, 15 μM ATP
protein kinase C δ = protein kinase C δ (Homo sapiens, UniProt Q05655); assay: protein kinase C δ assay; conditions: read-out: IC50 protein kinase C δ; Table 2, 15 μM ATP
Sequence of protein kinase C δ (Q05655 whole entry): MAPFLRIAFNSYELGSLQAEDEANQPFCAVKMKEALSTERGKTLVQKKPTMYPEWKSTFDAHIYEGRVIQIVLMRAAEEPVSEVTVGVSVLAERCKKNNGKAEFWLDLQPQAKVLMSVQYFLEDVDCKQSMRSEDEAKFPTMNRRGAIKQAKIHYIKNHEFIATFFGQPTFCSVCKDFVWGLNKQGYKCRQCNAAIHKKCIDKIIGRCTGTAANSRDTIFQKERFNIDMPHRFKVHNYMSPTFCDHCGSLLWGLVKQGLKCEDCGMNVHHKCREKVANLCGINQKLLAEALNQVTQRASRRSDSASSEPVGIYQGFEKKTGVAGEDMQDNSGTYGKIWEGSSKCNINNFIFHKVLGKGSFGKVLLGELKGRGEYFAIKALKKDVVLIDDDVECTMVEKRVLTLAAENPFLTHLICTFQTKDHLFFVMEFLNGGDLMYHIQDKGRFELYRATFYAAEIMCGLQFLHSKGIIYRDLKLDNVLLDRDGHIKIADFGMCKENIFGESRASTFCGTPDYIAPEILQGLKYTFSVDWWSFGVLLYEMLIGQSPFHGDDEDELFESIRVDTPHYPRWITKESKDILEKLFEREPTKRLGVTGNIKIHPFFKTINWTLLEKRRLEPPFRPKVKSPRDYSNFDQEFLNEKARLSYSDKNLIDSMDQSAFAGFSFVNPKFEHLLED

protein kinase C η = protein kinase C η (Homo sapiens, UniProt P24723); assay: protein kinase C η assay; conditions: read-out: IC50 protein kinase C η; Table 2, 15 μM ATP
protein kinase C β2 = protein kinase C β2 (Homo sapiens, UniProt P05771); assay: protein kinase C β2 assay; conditions: read-out: IC50 protein kinase C β2; Table 2, 15 μM ATP
CDK2/cyclin A = CDK2/cyclin A (Homo sapiens, UniProt P24941); assay: CDK2/cyclin A kinase assay; conditions: read-out: IC50 CDK2/cyclin A; Table 2, 15 μM ATP
CDK4/cyclin D1 = CDK4/cyclin D1 (Homo sapiens, UniProt P11802); assay: CDK4/cyclin D1 kinase assay; conditions: read-out: IC50 CDK4/cyclin D1; Table 2, 15 μM ATP
[4] = target: insulin receptor Tyr kinase; assay: insulin receptor Tyr kinase assay; conditions: read-out: IC50 insulin receptor Tyr kinase; Table 2, 15 μM ATP
[5] = Table 1, read-out: IC50 GSK-3 α/β
[6] = Table 2, 15 μM ATP, read-out: IC50 GSK-3α/β
[7] = Table 5, read-out: IC50 GSK-3α/β
[8] = Table 7, GSK-3, read-out: IC50exp
[9] = Table 1, read-out: IC50 CDK1/cyclin B
[10] = Table 2, 15 μM ATP, read-out: IC50 CDK1/cyclin B
[11] = Table 4, read-out: IC50 CDK1/cycin B
[12] = Table 5, read-out: IC50 CDK1/cyclin B

| SMILES | EC50 (AhR [1]) | solubility (in words) [2] | EC50 (AhR [3]) | IC50 (GSK-3α/β; [5]) | IC50 (GSK-3α/β; [6]) | IC50 (GSK-3α/β; Table 4, read-out: IC50 GSK-3) | IC50 (GSK-3α/β; [7]) | IC50 (GSK-3α/β; [8]) | IC50 (CDK1/cyclin B; [9]) | IC50 (CDK1/cyclin B; [10]) | IC50 (CDK1/cyclin B; [11]) | IC50 (CDK1/cyclin B; [12]) | IC50 (CDK5/p25; Table 1) | IC50 (CDK5/p25; Table 5) | IC50 (erk1) | IC50 (erk2) | IC50 (MAPKK) | IC50 (CDK5/p35) | IC50 (casein kinase 2) | IC50 (cAMP-dependent PK) | also measured |
| --- | --- | --- | --- | --- | --- | --- | --- | --- | --- | --- | --- | --- | --- | --- | --- | --- | --- | --- | --- | --- | --- |
| O=C1Nc2ccccc2/C1=C1/Nc2ccccc2/C1=N\O [7h, indirubin-3′-oxime] | 0.72 µM | increased solubility | 0.025 µM |  |  |  |  |  |  |  |  |  |  |  |  |  |  |  |  |  |  |
| CON=C1C(=C2C(=O)Nc3cc(Br)ccc32)Nc2ccccc21 [9a, 6-Bromoindirubin-3′-methoxime] | 0.03 µM | less soluble | > 0.1 µM | 0.03 µM | 0.03 µM | 0.03 µM | 0.03 µM | 0.03 µM | 3.4 µM | 3.4 µM | 3.4 µM | 3.7 µM | 2.2 µM | 2.2 µM | > 10 µM | > 10 µM | > 10 µM | 2.2 µM | 9 µM | > 10 µM | IC50 (cGMP-dependent PK): > 10 µM; IC50 (protein kinase C α): > 10 µM; IC50 (protein kinase C γ): > 10 µM; IC50 (protein kinase C δ): > 10 µM; IC50 (protein kinase C η): > 10 µM; IC50 (protein kinase C β2): > 10 µM; IC50 (CDK2/cyclin A): 15 µM; IC50 (CDK4/cyclin D1): > 10 µM; IC50 [4]: > 10 µM |
| CC(=O)ON=C1C(=C2C(=O)Nc3cc(Br)ccc32)Nc2ccccc21 [8a, 6-Bromoindirubin-3′-acetoxime] | 0.16 µM | less soluble |  | 0.01 µM | 0.01 µM | 0.01 µM | 0.01 µM | 0.01 µM | 63 µM | 63 µM | 63 µM | 63 µM | 2.4 µM | 2.4 µM | > 10 µM | > 10 µM | > 10 µM | 2.4 µM | > 10 µM | > 10 µM | IC50 (cGMP-dependent PK): > 10 µM; IC50 (protein kinase C α): > 10 µM; IC50 (protein kinase C γ): > 10 µM; IC50 (protein kinase C δ): > 10 µM; IC50 (protein kinase C η): > 10 µM; IC50 (protein kinase C β2): > 10 µM; IC50 (CDK2/cyclin A): 4.3 µM; IC50 (CDK4/cyclin D1): > 10 µM; IC50 [4]: > 10 µM |
